The subject of test [1] is iNOS. Briefly: iNOS protein level in LPS-stimulated rat peritoneal macrophages (immunoblotting). The following applies: pretreatment 1 h, LPS 1 μg/ml 24 h. In kind it is cell-based. On the procedure:
Sprague-Dawley (SD) rats from the University of Hong Kong were housed in cages with free access to food and water. Peritoneal macrophages of SD rats were isolated as described in Liu J. et al., Pharmacological research 2016, 111:303-315. Briefly, untreated rats were sacrificed and after laparotomy, about 50 ml cold sterile Hank's balanced salt solution (HBSS) was used to lavage the peritoneal cavity at twice, and then the peritoneal lavage fluid was collected and centrifuged at 1500 rpm for 10 min. The cell pellets was suspended at a density 1.5×10^6 cells/ml in pre-hearted DMEM medium with 10% heat-inactivated FBS, penicillin G (100 units/ml), streptomycin ([…]), and L-glutamine (2 mM), followed by seeding in 6-well plates at a density of 4.5×10^6 cells and incubation for 2 h. Then the medium were discarded to remove the non-adherent cells. The adherent cells were further washed for two times with pre-heated DMEM medium to remove floating cells. Next, cells were pre-treated with various concentration of SIN for 1 h, followed by stimulation with LPS (1 μg/ml).
Whole-cell and nuclear proteins were obtained using RIPA lysis buffer (CST, Boston, Mass., USA) and Nuclear and Cytoplasmic Extraction Reagents kit from Thermo Scientific (Asheville, N.C., USA), respectively. […] The levels of protein expression were measured using Odyssey v3.0 software from Li-COR (Lincoln, Nebr., USA).
On the technique in general: Immunoblotting shows a protein as a band on a membrane.

Test [2] concerns CEBPβ (mPGES-1 promoter). Briefly: ChIP assay: CEBPβ DNA binding to mPGES-1 promoter in LPS-stimulated rat peritoneal macrophages. Format: cell-based. The following applies: 640 μM SIN 1 h, 1 μg/ml LPS 30 min. On the procedure: Rat peritoneal macrophages were pretreated with 640 μM SIN (1 h) and stimulated with 1 μg/ml LPS (30 min) before fixation at room temperature for 10 min with 1% formaldehyde. Fixation was terminated by adding glycine (to 0.125 M) with an additional incubation of 5 min, then the cells were washed twice with ice-cold PBS and harvested by scraping and centrifugation (1500 rpm for 10 min at 4° C.). Cell lysis was performed using ChIP kit from abcam (Cambridge, UK) according to the manufacturer's instructions. Briefly, cell pellets were resuspended in 1 ml Buffer B by pipetting up and down several times in a microcentrifuge tube and incubated at room temperature for 10 min. After centrifugation at 5000 rpm, the pellet was collected and resuspended in ice cold Buffer C and incubated on ice for 10 min, followed by centrifugation (5,000 rpm for 10 min at 4° C.). The pellet was mixed with 100 μl Buffer D containing protease inhibitors, incubated on ice for 10 min and sonicated for 30 cycles in a Bioruptor UCD-300 sonicator (power on high, 30 s on, 30 s off per cycle), yielding DNA fragments of 150-200 bps (the size of sonicated chromatin was checked through running 2% agarose gel). Beads were blocked overnight in PBS with 0.5% BSA and then added to the samples. […]

For the compound `COC1=C[C@@H]2[C@@H]3Cc4ccc(OC)c(O)c4[C@]2(CCN3C)CC1=O` [SIN, sinomenine], the iNOS expression result in test [1] is on record as “significantly inhibited”. In test [2], the “DNA binding of CEBPβ to the mPGES-1 promoter” value was “inhibited”.
